Measurements taken from patent US20260076970A1, “CANCER TREATMENT USING MTDP INHIBITORS AND PLK1 INHIBITORS” (Cardiff Oncology, Inc., priority 2022, published 2026).
Like-named read-outs stand apart in the source and are kept apart here.

Experiments:
[1] = test system: CYP2C8, CYP2C9, CYP2C19, CYP2D6, CYP3A4; assay: CYP inhibition in human liver microsomes, summary over isoforms; format: in vitro ADME; conditions: range over isoforms
Excerpt: (§1) In Table 1, IC50 is shown as mean±SEM (standard error of mean).

[2] = test system: disseminated model of AML; assay: disseminated model of AML, combination with cytarabine; format: in vivo; conditions: in combination therapy with cytarabine
[3] = test system: HT29 human colon adenocarcinoma xenografts; assay: HT29 xenograft, combination with irinotecan; format: in vivo; conditions: in combination with irinotecan
clinical = conditions: human, in vivo, po
PLK1 = PLK1 (Homo sapiens, UniProt P53350); assay: biochemical assays, panel of 296 kinases; conditions: including other PLK members
AML cell lines = assay: cell proliferation in AML cell lines; format: cell-based
patients with mCRPC = assay: onvansertib plus abiraterone in patients with mCRPC (NCT03414034); format: in vivo, human
[4] = pharmacologic parameters of onvansertib; format: in vivo
[5] = concentration for anti-tumoral activity in mice; format: in vivo
Excerpt: as §1

[6] = target: panel of 63 kinases other than PLK1; assay: kinase panel selectivity (63 kinases); format: biochemical
SUM159 xenografts = assay: SUM159 mouse xenograft; format: in vivo; conditions: at 21 days; onvansertib 120 mg/Kg P.O. day 1 and 2 weekly or paclitaxel 10 mg/Kg I.P. day 1 weekly
CYP1A2 = target: T1, CYP1A2 (Homo sapiens, UniProt P05177); assay: CYP inhibition in human liver microsomes; format: in vitro ADME
T1 construct: was investigated using human liver microsomes; from tissue; host or cells: human liver microsomes
T1 sequence (P05177 1-516): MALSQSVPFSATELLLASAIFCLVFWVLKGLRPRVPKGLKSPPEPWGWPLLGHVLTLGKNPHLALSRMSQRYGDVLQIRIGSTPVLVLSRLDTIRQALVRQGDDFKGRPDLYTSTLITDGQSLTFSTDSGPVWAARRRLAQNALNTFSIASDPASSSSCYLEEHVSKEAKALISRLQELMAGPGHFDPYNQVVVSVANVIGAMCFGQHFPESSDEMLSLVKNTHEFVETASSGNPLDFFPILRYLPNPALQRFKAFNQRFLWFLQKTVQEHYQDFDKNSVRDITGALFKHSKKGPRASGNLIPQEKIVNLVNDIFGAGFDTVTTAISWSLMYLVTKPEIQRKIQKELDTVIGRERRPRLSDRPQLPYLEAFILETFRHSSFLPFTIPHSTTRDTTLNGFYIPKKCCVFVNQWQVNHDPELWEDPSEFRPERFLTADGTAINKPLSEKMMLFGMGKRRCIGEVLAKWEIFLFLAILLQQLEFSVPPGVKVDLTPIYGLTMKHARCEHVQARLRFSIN
Excerpt: as §1

[7] = test system: metastatic breast cancer patients; conditions: cited from earlier work
patients with AML [8] = conditions: intravenously in combination with LDAC; treatment-naïve AML; cited from earlier work
patients with AML [9] = conditions: in combination with LDAC; cited from earlier work
[10] = test system: patients with metastatic TNBC; conditions: with chemotherapy vs chemotherapy and placebo; tumors strongly positive for PD-L1 (CPS>10); cited from earlier work

Sequence of PLK1 (P53350 whole entry): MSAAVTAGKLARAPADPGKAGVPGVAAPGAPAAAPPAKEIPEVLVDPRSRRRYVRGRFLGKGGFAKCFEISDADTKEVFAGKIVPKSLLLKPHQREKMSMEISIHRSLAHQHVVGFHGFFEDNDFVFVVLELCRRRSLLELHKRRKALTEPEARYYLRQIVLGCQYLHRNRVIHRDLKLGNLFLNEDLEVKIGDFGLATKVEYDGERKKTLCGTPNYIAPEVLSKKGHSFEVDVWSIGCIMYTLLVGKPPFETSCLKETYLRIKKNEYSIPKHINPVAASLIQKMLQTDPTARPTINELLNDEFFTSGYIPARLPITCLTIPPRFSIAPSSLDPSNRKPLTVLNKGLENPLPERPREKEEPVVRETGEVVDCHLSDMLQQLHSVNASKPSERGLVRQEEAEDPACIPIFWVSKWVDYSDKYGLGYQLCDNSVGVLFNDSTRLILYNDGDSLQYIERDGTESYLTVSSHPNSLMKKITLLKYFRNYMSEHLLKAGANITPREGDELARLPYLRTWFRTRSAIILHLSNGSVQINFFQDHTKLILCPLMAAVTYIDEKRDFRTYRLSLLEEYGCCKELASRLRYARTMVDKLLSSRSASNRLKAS

CN1CCN(c2ccc(OC(F)(F)F)c(Nc3ncc4c(n3)-c3c(c(C(N)=O)nn3CCO)CC4)c2)CC1 [onvansertib, 1-(2-hydroxyethyl)-8-{[5-(4-methylpiperazin-1-yl)-2-(trifluoromethoxy)phenyl]amino}-4,5-dihydro-1H-pyrazolo[4,3-h]quinazoline-3-carboxamide]
IC50 [1]: 20 to 66 µM | survival of animals [2]: prolonged survival | tumor regression compared to each agent alone [3]: enhanced tumor regression | half-life (clinical): 20 to 30 h | specificity for PLK1 among a panel of 296 kinases (PLK1): high specificity | inhibition of cell proliferation (AML cell lines): nanomolar concentrations | evaluable patients who met the primary efficacy endpoint (patients with mCRPC; 12 mg/m^2, 14+7 regimen with abiraterone, 5 evaluable): 60% | hematological toxicities reported (patients with mCRPC; 12 mg/m^2 QD 14+7 regimen with abiraterone QD, 9 patients): no Grade 2 or higher hematological toxicities | evaluable patients who met the primary efficacy endpoint (patients with mCRPC; 18 mg/m^2, 5+9 regimen, 10 evaluable): 30% | half-life ([4]; in vivo): 24 h | oral bioavailability ([4]; rodent and nonrodent species): good oral bioavailability | concentrations relevant to achieve significant anti-tumoral activity [5]: ~1 µM | IC50 [6]: > 0.5 µM | tumor growth inhibition, difference compared to controls (SUM159 xenografts): −0.406 | inhibitory effects against CYP1A2 (CYP1A2): No significant inhibitory effects

CC(=O)O[C@H]1C(=O)[C@@]2(C)[C@H]([C@H](OC(=O)c3ccccc3)[C@]3(O)C[C@H](OC(=O)[C@H](O)[C@@H](NC(=O)c4ccccc4)c4ccccc4)C(C)=C1C3(C)C)[C@]1(OC(C)=O)CO[C@@H]1C[C@@H]2O [paclitaxel, 5β,20-Epoxy-1,2α,4,7β,10β,13α-hexahydroxytax-11-en-9-one 4,10-diacetate 2-benzoate 13-ester with (2R,3S)-N-benzoyl-3-phenylisoserine]
Grade 3 anemia ([7]; 80 mg/m^2 weekly, 212 patients): 9% | Grade 3 or 4 neutropenia ([7]; 80 mg/m^2 weekly, 212 patients): 15% | responses ([7]; 45 assessable patients with prior taxane therapy): 15.6% | responses ([7]; 131 assessable patients with prior anthracycline therapy): 17.6% | overall response rate ([7]; 177 assessable patients): 21.5% | median time to progression ([7]; assessable patients): 142 days | grade 3 neuropathy ([7]; in vivo): 9% | grade 4 neuropathy ([7]; in vivo): no patient | median number of courses of therapy until development of grade 2 or 3 neuropathy ([7]; in vivo): five | median time to progression ([7]; no prior chemotherapy for metastatic disease): 174 days | median time to progression ([7]; one prior regimen): 140 days | median time to progression ([7]; two prior regimens): 85 days | tumor growth inhibition, difference compared to controls (SUM159 xenografts): −0.337

CC[C@@H]1C(=O)N(C)c2cnc(Nc3ccc(C(=O)N[C@H]4CC[C@H](N5CCN(CC6CC6)CC5)CC4)cc3OC)nc2N1C(C)C [volasertib]
OS compared with LDAC alone (patients with AML [8]): significant increase in OS | benefit of the combination (patients with AML [9]): no benefit | risk of severe infections (patients with AML [9]): increased risk of severe infections

Pembrolizumab: a monoclonal antibody directed against the PD-1 receptor
reduction of the risk of death [10]: 27%
